Data: patent US20250064779A1, “COMPOSITIONS AND METHODS FOR THE TREATMENT OF DEPRESSION” (Janssen Pharmaceuticals, Inc., priority 2022, published 2025)
“And” between values parts separate entries of the source, which are not always exact repeats. Identical values can stand only once.

What was measured:
Assay type in all cases: in vivo, human
Weight change, Example 1 = settings: n = 85; for Mean weight, Withdrawal Baseline, mean (SE): after 6 weeks in the double-blind treatment phase
Description: At the lead-in baseline timepoint, the mean weight for subjects in the placebo group was 76.17 kg compared to 78.66 in the aticaprant group. After 6 weeks in the double-blind treatment phase, the mean weight in the placebo group was 75.75 kg compared to 78.57 kg in the aticaprant group. […] This is unexpected because other adjunctive treatments for MDD result in a mean weight increase. See, Thase M, et al. J Clin Psych. 2015: 76(9), 1224-1231; Thase, J Clin Psych. 2015, 76(9):1232-1240; El Khalili, Int J Neuropsychopharmacol. 2010, 13, 917-932; Marcus, J. Clin. Psychopharmacol. […] Nashville, Tenn, ACNP, 2008; Earley, American College of Neuropsychopharmacology, 2007, Annual Meeting Abstracts (Boca Raton, Fla, Dec. 9-13, 2007). Nashville, TN, ACNP, 2007). See, Table 29.

subjects with TRD [1] = experiment: PHQ-9 total score, esketamine long-term study (Example 5)
Description: This is an open-label, multicenter, long-term study to evaluate the efficacy of intranasal esketamine plus a newly initiated oral antidepressant in subjects with TRD ([…] 3002/NCT02418585).
Each subject participated in up to 4 phases: up to 4-week screening phase (direct-entry subjects only), a 4-week open-label induction (IND) phase (direct-entry subjects and transferred-entry non responder subjects), a 48-week open-label optimization/maintenance (OP/MA) phase (all responder subjects from the open label IND phase of the current study, and transferred-entry responder subjects), and a 4-week follow-up phase. The maximum duration of the subject's participation in […] 3004 study was 60 weeks for direct-entry subjects; 56 weeks for transferred-entry non-responder subjects, and 52 weeks for transferred-entry responder subjects. The sample size of 750 was estimated to have at least 300 subjects received treatment with intranasal esketamine for 6 months and at least 100 subjects for 12 months. In addition, transfer-entry subjects were enrolled from 3005 study to get 100 elderly subjects dosed with esketamine. See, FIG. 30 for the trial design.
The efficacy analyses are based on the full (IND) analysis set and the full (OP/MA) analysis set. […] A total score (0 to 60) is calculated by summing the scores of all 10 items. […]

subjects with TRD [2] = experiment: MADRS, intranasal esketamine plus oral antidepressant, open-label long-term study (Example 5)
subjects with TRD [3] = experiment: SDS remission (functional recovery), esketamine long-term study (Example 5); settings: observed case
Description: Functional recovery measured by SDS followed with some lag time after mood improvement. […] See, FIG. 32.

[4] = tested on: adjunctive MDD, including treatment-resistant MDD (TRD) and MDD with suicidal ideation (SUI); experiment: Biomarker signature (3MM, 2MM, CRP) analysis of MADRS treatment effect across clinical trials (Example 6)
Experimental: Samples of venous blood were obtained from patients and healthy control subjects from subject described in Example 5 and from the other clinical trials referenced herein. Serum or plasma was prepared from the samples of venous blood. Measurements of human CRP and IL-6-R were performed in serum using an MSD Sector 6000 with the kits #K151STD and K151ALC (MesoScale Discovery, Rockville, MD). Human TNFα was quantified in serum using a Simoa HD-1 analyzer with kit #143 (Quanterix, Lexington, MA). All measures were performed according to kit manufacturer's recommendations.
As used in the following biomarker assay analysis, treatment (TRT) refers to treatment with intranasal esketamine plus optionally an oral antidepressant and placebo (PBO) refers to treatment with a placebo plus optionally an oral antidepressant.
The following biomarker signatures were employed: • 3MM: Inflammatory biomarker signature with positive status defined by CRP >3 mg/L and (TNFα>4 pg/mL or sIL6R>25 ng/mL). • 2MM: Inflammatory biomarker signature with positive status defined by CRP >3 mg/L and sIL6R>25 ng/mL. • CRP: Inflammatory biomarker signature with positive status defined by CRP >3 mg/L/
The 3MM signature was tested in clinical trials for adjunctive MDD, including treatment-resistant MDD (TRD) and MDD with suicidal ideation (SUI). […] Significant was driven by Esketamine (ESK) TRD trials.

[5] = endpoint of OP/MA phase, responders proceeding to OP/MA
[6] = across the esketamine TRD trials, end of double blind treatment

Compound: Cc1cc(C)cc(C2CCCN2Cc2ccc(Oc3ccc(C(N)=O)cc3F)cc2)c1 (stereo not drawn) [aticaprant, 3-fluoro-4-4-2-(3,5-dimethylphenyl)pyrrolidin-1-yl-methylphenoxybenzamide]
- Mean weight, Lead-in Baseline, mean (SE) (Weight change, Example 1): 78.66 kg
- Mean weight, Screening, mean (SE) (Weight change, Example 1): 78.42 (1.65) kg
- Weight: Absolute Change (Withdrawal − Lead-in) (Weight change, Example 1): -0.09 kg
- Weight: Relative % Change (Weight change, Example 1; Withdrawal vs Lead-in): −0.11%
- Mean weight, Withdrawal Baseline, mean (SE) (Weight change, Example 1): 78.57 kg
- Mean weight, Withdrawal Baseline, mean (SE) (Weight change, Example 1; listed as Aticaprant): 78.57 (1.71) kg
- Mean weight, Lead-in Baseline, mean (SE) (Weight change, Example 1; listed as Aticaprant): 78.66 (1.65) kg

Compound: CN[C@]1(c2ccccc2Cl)CCCCC1=O [esketamine, (S)-2-(2-chlorophenyl)-2-(methylamino)cyclohexanone]
- PHQ-9 total score: mean change (SD) from Baseline (IND) to End Point (IND) (subjects with TRD [1]; induction phase): −8.9 (6.67)
- PHQ-9 total score: mean change (SD) from Baseline (OP/MA) to End Point (OP/MA) (subjects with TRD [1]; optimization/maintenance phase): −0.2 (5.65)
- MADRS total score: mean change (SD) from Baseline (IND) to End Point (IND) (subjects with TRD [2]; 4-week open-label induction phase, intranasal 28/56/84 mg twice weekly): −16.4 (8.76)
- MADRS total score: mean change (SD) from Baseline (OP/MA) to End Point (OP/MA) (subjects with TRD [2]; 48-week optimization/maintenance phase): 0.3 (8.12)
- remission rate (MADRS total score ≤12) (subjects with TRD [2]; End Point, IND phase): 47.2%
- response rate (≥50% improvement from Baseline (IND) in MADRS total score) (subjects with TRD [2]; End Point, IND phase): 78.4%
- remitters (MADRS total score ≤12) (subjects with TRD [2]; [5]): 58.2%
- responders (≥50% improvement in MADRS total score) (subjects with TRD [2]; [5]): 76.5%
- remission rate measured by SDS (subjects with TRD [3]; OP/MA phase week 4): 25.2%
- remission rate measured by SDS (subjects with TRD [3]; OP/MA phase week 48): 51.1%
- remission rate measured by SDS (subjects with TRD [3]; endpoint of the IND phase): 21.1%
- treatment effect, change in MADRS, biomarker signature negative patients ([4]; TRD2003, Japanese patients): 2.83 points
- treatment effect, change in MADRS, biomarker signature positive patients ([4]; TRD2003, Japanese patients, small n): 11.69 points
- Signature advantage (difference between subtypes), 3MM ([4]; across the esketamine TRD trials): 5.8 point
- Treatment effect over placebo in 3MM biomarker signature negative subjects (TE SigNeg) [4, 6]: 2 MADRS points and 2.0 MADRS points
- Treatment effect over placebo in 3MM biomarker signature positive subjects (TE SigPos) [4, 6]: 7.8 MADRS points
- 3MM status at baseline as predictor of treatment effect ([4]; esketamine trials with suicidal ideation (SUI)): did not predict treatment effect
